Measured values as given in patent publication US8148516B2, “Flowcell systems for single molecule detection” (Pacific Biosciences of California, Inc., priority 2000, dated 2012).

Assay: Capillary electrophoresis of dTTP and dTDP: effect of Mg++ on electrophoretic mobility
Assay type: physicochemical
Details: 50 mM Tris-acetate pH 8.0, 60 mM KCl; for effect of Mg++ on electrophoretic mobility: MgCl2 3-40 mM
Method: The effect of Mg^++ on the electrophoretic mobility of dTTP and dTDP was determined by capillary electrophoresis. Electrophoresis buffer contained 50 mM Tris-acetate pH 8.0, 60 mM KCl, and various concentrations of MgCl2 (3, 4, 6, 10, 15, 25 and 40 mM). The sample contained 0.5 mM nucleotide (dTTP or dTDP; Sigma) and 0.8 mM mesityl oxide (electroneutral marker; Sigma). The samples were analyzed by capillary electrophoresis (Hewlett Packard) using an uncoated fused silica capillary (40 cm from injection end to detection zone). Voltage was 8.5 kV and peaks were monitored by optical absorbance at 260 nm. Electrokinetic velocity of each sample peak was calculated by dividing distance (40 cm) by elution time. Electroosmotic flow (EOF) of the bulk buffer is taken as the velocity of the mesityl oxide marker. Nucleotide electrophoretic velocity is the nucleotide electrokinetic velocity minus EOF. Nucleotide electrophoretic velocities are plotted as a function of Mg^++ concentration (FIG. 11A).

Row | effect of Mg++ on electrophoretic mobility | SMILES | electrophoretic mobility compared with dTDP (3-40 mM MgCl2, 8.5 kV)
1 | from more negative to less negative | Cc1cn([C@H]2C[C@H](O)[C@@H](COP(=O)(O)OP(=O)(O)O)O2)c(=O)[nH]c1=O [dTDP] | –
2 | from more negative to less negative | Cc1cn([C@H]2C[C@H](O)[C@@H](COP(=O)(O)OP(=O)(O)OP(=O)(O)O)O2)c(=O)[nH]c1=O [dTTP] | more negative electrophoretic mobility than the dTDP
